Each block holds one compound with its values, some of them ahead of it.
Assays:
Format in all cases: physicochemical
[1] = Water sorption/desorption on automatic water sorption analyzer DVS-1; conditions: 25° C.
Procedure: Anhydro form of ezetimibe was tested on the automatic water sorption analyzer DVS-1 (Surface Measurement Systems Ltd., London, GB) under the following conditions: • controlled room temperature (25° C.) • nitrogen flow 200 ml/min • two full cycles from 0% RH to 95% RH and back in eleven stages • minimal time per one stage (when dm/dt<0.002%) was 10 min • maximal time per one stage was 360 min.

[2] = Heating in Mettler HR73 Halogen Moisture Analyzer (LOD), then XRPD analysis
Description: Hydrated form H of ezetimibe (from Example 30) was heated in a Mettler HR73 Halogen Moisture Analyzer. […] In all cases anhydro form of ezetimibe resulted according to XRPD analysis.
Pure S form of ezetimibe (tert.-butanol solvate; from Example 32) was heated in a Mettler HR73 Halogen Moisture Analyzer at different temperatures for the time indicated and analyzed by XRPD.

[3] = Drying in an air dryer, XRPD analysis
Description: Hydrated form H of ezetimibe was dried in an air dryer (RH was 35%) at two different temperatures.

[4] = Drying in a vacuum dryer, XRPD analysis; conditions: ambient temperature, cca. 100 mbar
Procedure: Hydrated form H of ezetimibe was dried in a vacuum dryer at an ambient temperature and a pressure of cca. 100 mbar. After 1 h anhydrous form already predominated (A>H), after 2 h it became the sole form according to XRPD analysis.

mass in the desorption cycle ([1]; at 20% RH): dropped sharply | mass in the desorption cycle ([1]; down to 30% RH): not significantly changed | water sorption, mass change at equilibrium ([1]; first cycle, 60% RH): 4.2% | water sorption, total ([1]; first cycle, 95% RH): 4.4% | absorption of water ([1]; first cycle, up to 50% RH): no significant absorption of water | water sorption ([1]; second cycle, 50% RH): increased sharply
SMILES: O=C1[C@H](CC[C@H](O)c2ccc(F)cc2)[C@@H](c2ccc(O)cc2)N1c1ccc(F)cc1 [Anhydro form of ezetimibe, 1-(4-fluorophenyl)-3(R)-[3-(4-fluorophenyl)-3(S)-hydroxypropyl]-4(S)-(4-hydroxyphenyl)-2-azetidinone]

time to constant value of LOD ([2]; 50° C.): 11.5 min | time to constant value of LOD ([2]; 60° C.): 6.5 min | time to constant value of LOD ([2]; 70° C.): 4.5 min | resulting form according to XRPD analysis ([2]; after heating at 50, 60 or 70° C. to constant LOD): anhydro form | Constant value of LOD ([2]; heated at 50° C., 60° C. or 70° C.): −4.5% | form detected according to XRPD analysis ([3]; air dryer, RH 35%, 40° C., after 1 h): only anhydro form | temperature at which converted to anhydrous form A ([3]; upon drying): about 40 °C | form according to XRPD analysis ([4]; after 1 h): A>H | form according to XRPD analysis ([4]; after 2 h): sole form
SMILES: O=C1[C@H](CC[C@H](O)c2ccc(F)cc2)[C@@H](c2ccc(O)cc2)N1c1ccc(F)cc1 [Hydrated form H of ezetimibe, 1-(4-fluorophenyl)-3(R)-[3-(4-fluorophenyl)-3(S)-hydroxypropyl]-4(S)-(4-hydroxyphenyl)-2-azetidinone]

stability upon drying [2]: stable upon drying | LOD (%) ([2]; 50 ° C., 14 min): −0.83% | LOD (%) ([2]; 60 ° C., 10.5 min): −1.10% | LOD (%) ([2]; 70 ° C., 9 min): −2.34% | LOD (%) ([2]; 130 ° C., 4.5 min): −12.0% | loss of drying ([2]; temperature of about 70° C.): only minimal loss of drying
SMILES: O=C1[C@H](CC[C@H](O)c2ccc(F)cc2)[C@@H](c2ccc(O)cc2)N1c1ccc(F)cc1 [S form of ezetimibe, 1-(4-fluorophenyl)-3(R)-[3-(4-fluorophenyl)-3(S)-hydroxypropyl]-4(S)-(4-hydroxyphenyl)-2-azetidinone]

— patent US20130190487A1, “PROCESS FOR THE PREPARATION OF EZETIMIBE AND DERIVATIVES THEREOF” (KRKA, priority 2007, published 2013)
